For test [1], the target named is T1, GLP-1R (Homo sapiens, UniProt P43220). Description: GLP-1R low density cAMP accumulation in HEK293 cells. The class given is cell-based. More on the design: expressed in transfected cells; host or cells: HEK293. The settings on record: for GLP-1R Low Density cAMP Top: efficacy (% Top), normalized to GLP-1(7-36), (SEM). On the procedure:
(§1) Fig. 4. […] (B) Ligand-induced GTPγS binding of Gαs was performed using the GIPR-expressing membranes. […] (C) Agonist-stimulated cAMP production was measured in human GIPR expressing HEK293 cells. […] (E) Ligand-induced GTPγS binding of Gαs was performed using the GLP-1R-expressing membranes. […] (F) Agonist-stimulated cAMP production was measured in human GLP-1R-expressing HEK293 cells. […] Data presented are representative of n ≥ 3 independent experiments. Summarized data are shown in SI Appendix, Table 2. log M; log Molar.
(§2) We note that the albumin-binding propensity of fatty acid-modified peptides can confound a pharmacological comparison of molecules, given the common use of albumin and serum as nonspecific blocking agents in biological assays. Therefore, to obviate this, entirely albumin-free assays supplemented with bovine casein or bacitracin were used to prevent nonspecific binding ([10]). […]
(§3) Middle Panel: The affinity (Ki) of ligands for the GLP-1R was […]
(§4) Functional potency (EC50) and efficacy (% Top) of ligands to induce Gα s-GTPγS binding and cAMP accumulation in HEK293 cells expressing GLP-1R were determined. The equilibrium affinity (KD) of ligands for the immobilized ectodomain of the GLP-1R were quantified by surface plasmon resonance. […]
(§5) SPR data were analyzed using T200 evaluation software (Cytiva). All data are presented as geometric means with SEM and n values according to established practices. ND, not determined. NA, not applicable.
(Changes in cAMP serve as a functional read-out for many G protein-coupled receptors.)
Target sequence in this assay (P43220 24-463): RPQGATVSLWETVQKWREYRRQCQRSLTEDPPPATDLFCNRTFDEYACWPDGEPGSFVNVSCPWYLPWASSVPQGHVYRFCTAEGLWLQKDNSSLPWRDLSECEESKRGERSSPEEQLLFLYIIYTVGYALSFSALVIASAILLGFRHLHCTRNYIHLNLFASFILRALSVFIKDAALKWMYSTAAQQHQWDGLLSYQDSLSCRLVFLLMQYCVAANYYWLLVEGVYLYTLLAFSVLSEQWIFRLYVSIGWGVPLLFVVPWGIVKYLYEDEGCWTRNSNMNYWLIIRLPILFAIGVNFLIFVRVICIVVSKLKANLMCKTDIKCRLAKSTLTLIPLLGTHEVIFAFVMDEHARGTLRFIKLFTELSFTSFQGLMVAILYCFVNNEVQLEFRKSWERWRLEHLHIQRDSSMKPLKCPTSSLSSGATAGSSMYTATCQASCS

Test [2] concerns the target T1, GLP-1R. Put plainly: GRK2 recruitment to the GLP-1R, NanoBRET. The class given is cell-based. More on the design: expressed in transfected cells; host or cells: freestyle HEK cells. The note with it: for GLP-1R GRK2 Recruitment Top: efficacy (% Top), relative to maximal GLP-1, (SEM). On the procedure: After 48 h, transfected cells were incubated in phosphate-buffered saline (PBS) containing 0.1% (wt/vol) bovine casein and varying concentrations of the ligands. […]
The potency (EC50) and efficacy (% Top) for ligands to induce GLP-1R Internalization were
determined using diffusion-enhanced resonance energy transfer.
relative efficacy for NanoBRET assays. SPR data were analyzed using T200 evaluation software (Cytiva). All data are presented as geometric means with SEM and n values
(§6) according to established practices. ND, not determined. NA, not applicable.
A general note: BRET reads energy transfer from a luciferase to a nearby fluorophore.
Target sequence in this assay (P43220 24-463): as above
Target sequence in this assay (P25098 whole entry partner): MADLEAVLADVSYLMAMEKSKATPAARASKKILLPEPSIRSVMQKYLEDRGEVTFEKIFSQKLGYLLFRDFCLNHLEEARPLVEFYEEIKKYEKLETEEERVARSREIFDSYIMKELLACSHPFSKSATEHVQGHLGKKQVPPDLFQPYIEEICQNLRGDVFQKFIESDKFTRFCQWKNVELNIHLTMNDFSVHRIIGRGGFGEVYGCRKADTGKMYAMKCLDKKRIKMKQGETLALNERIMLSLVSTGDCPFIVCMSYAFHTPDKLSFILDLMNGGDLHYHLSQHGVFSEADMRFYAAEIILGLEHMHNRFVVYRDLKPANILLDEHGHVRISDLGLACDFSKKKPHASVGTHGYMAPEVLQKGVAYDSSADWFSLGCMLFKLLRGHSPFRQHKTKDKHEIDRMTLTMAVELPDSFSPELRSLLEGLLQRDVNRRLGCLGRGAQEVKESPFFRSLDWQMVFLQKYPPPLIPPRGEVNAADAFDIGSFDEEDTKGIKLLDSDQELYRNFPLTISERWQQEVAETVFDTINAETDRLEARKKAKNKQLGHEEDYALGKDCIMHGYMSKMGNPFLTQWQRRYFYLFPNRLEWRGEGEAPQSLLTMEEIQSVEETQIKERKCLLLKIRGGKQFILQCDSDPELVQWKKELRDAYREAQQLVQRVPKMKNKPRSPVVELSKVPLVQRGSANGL

The target of test [3] is T1, GLP-1R. Put plainly: GLP-1R Gαs [35S]GTPγS binding, GLP-1R-expressing membranes. Also noted: expressed in transfected cells; host or cells: HEK293. The note with it: for GLP-1R GTPγS Recruitment Top: efficacy (% Top), normalized to GLP-1(7-36), (SEM). The class given is biochemical. On the procedure: as §1, §2, §3, §4, §5
Target sequence in this assay (P43220 24-463): as the sequence (P43220 24-463) above
Test [4] deals with T1, GLP-1R. Put plainly: Ligand-induced GLP-1R internalization, SNAP-GLP-1R HEK293 cells. The class given is cell-based. The note with it: for GLP-1R Internalization Top: efficacy (% Top), percent internalization compared to maximal GLP-1, (SEM).
Target sequence in this assay (P43220 24-463): as above
The target in test [5] is T1, GLP-1R. Description: β-arrestin 1 recruitment to the GLP-1R, NanoBRET. The class given is cell-based. Also noted: expressed in transfected cells. The note with it: efficacy (% Top), relative efficacy to GLP-1; (SEM). On the procedure: Functional potency (EC50) […]
and efficacy (% Top) of ligands to induce Gα s -GTPγS binding and cAMP accumulation in HEK293 cells expressing GIPR were determined. The equilibrium affinity (KD) of ligands for the immobilized ectodomain of the GIPR were quantified by surface plasmon resonance. Middle Panel: The affinity (Ki) of ligands for the GLP-1R was […]
as §4
recruitment to the GLP-1R were determined using the NanoBRET approach. The potency (EC50) and efficacy (% Top) for ligands to induce GLP-1R Internalization were determined using diffusion-enhanced resonance energy transfer. […]
relative efficacy for NanoBRET assays. SPR data were analyzed using T200 evaluation software (Cytiva). All data are presented as geometric means with SEM and n values according to established practices. ND, not determined. NA, not applicable.
(In general: Recruitment of arrestin is a read-out of receptor activation apart from second messengers.)
Target sequence in this assay (P43220 24-463): as above
Target sequence in this assay (P49407 whole entry partner): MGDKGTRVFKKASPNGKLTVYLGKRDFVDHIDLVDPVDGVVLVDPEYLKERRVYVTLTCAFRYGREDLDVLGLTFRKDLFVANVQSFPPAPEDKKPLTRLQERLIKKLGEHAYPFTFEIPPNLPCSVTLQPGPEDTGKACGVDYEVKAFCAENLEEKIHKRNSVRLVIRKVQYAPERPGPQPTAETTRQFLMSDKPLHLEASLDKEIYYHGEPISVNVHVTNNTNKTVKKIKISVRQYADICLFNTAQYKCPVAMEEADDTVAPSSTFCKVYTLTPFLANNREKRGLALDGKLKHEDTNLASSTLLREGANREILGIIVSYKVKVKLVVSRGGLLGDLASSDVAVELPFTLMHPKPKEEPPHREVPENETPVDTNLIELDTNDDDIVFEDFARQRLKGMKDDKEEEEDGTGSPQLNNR

The target in test [6] is T2, human GIPR (Homo sapiens, UniProt P48546).
T2 construct: expressed in transfected cells; host or cells: HEK293
T2 sequence (P48546 22-466): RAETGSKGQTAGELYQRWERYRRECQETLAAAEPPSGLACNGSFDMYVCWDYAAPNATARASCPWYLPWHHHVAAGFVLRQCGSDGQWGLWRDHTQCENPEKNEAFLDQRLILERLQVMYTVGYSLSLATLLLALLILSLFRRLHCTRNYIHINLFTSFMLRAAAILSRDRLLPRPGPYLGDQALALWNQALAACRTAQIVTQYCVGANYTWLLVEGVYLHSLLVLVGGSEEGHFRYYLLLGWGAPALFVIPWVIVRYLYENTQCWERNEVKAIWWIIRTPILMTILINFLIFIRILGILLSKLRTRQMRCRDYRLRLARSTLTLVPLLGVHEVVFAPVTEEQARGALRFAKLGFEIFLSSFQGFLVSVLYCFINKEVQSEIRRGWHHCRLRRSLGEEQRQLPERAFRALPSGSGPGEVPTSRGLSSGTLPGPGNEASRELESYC
Description: GIPR low density cAMP accumulation in HEK293 cells. The class given is cell-based. On the procedure: as §1
(§7) We note that the albumin-binding propensity of fatty acid-modified peptides can confound a pharmacological comparison of molecules, given the common use of albumin and serum as nonspecific blocking agents in biological assays. Therefore, to obviate this, entirely albumin-free assays supplemented with bovine casein or bacitracin were used to prevent nonspecific binding ([10]).
(§8) Functional potency (EC50)
(§9) and efficacy (% Top) of ligands to induce Gα s -GTPγS binding and cAMP accumulation in HEK293 cells expressing GIPR were determined. The equilibrium affinity (KD) of
(§10) ligands for the immobilized ectodomain of the GIPR were quantified by surface plasmon resonance. […]
(§11) SPR data were analyzed using T200 evaluation software (Cytiva). All data are presented as geometric means with SEM and n values
as §6

Test [7] addresses T2, human GIPR. Put plainly: GIPR Gαs [35S]GTPγS binding, GIPR-expressing membranes. The class given is biochemical. The procedure: as §1, §7, §8, §9, §10, §11, §6
Setting [8] is: efficacy (% Top), normalized to GIP(1-42), (SEM).

Where a SMILES comes first, the peptide text is derived from it. [ ]: non-standard residue; d: D form. Aib = CC(C)(N)C(=O)O

As for `CC[C@H](C)[C@H](NC(=O)[C@H](CC(C)C)NC(=O)[C@H](Cc1c[nH]c2ccccc12)NC(=O)[C@H](CCC(N)=O)NC(=O)[C@@H](NC(=O)[C@H](Cc1ccccc1)NC(=O)[C@H](C)NC(=O)[C@H](CCCCNC(=O)COCCOCCNC(=O)COCCOCCNC(=O)CC[C@H](NC(=O)CCCCCCCCCCCCCCCCCCC(=O)O)C(=O)O)NC(=O)[C@H](CCC(N)=O)NC(=O)[C@H](C)NC(=O)[C@@H](NC(=O)[C@H](CCCCN)NC(=O)[C@H](CC(=O)O)NC(=O)[C@H](CC(C)C)NC(=O)C(C)(C)NC(=O)[C@@H](NC(=O)[C@H](CO)NC(=O)[C@H](Cc1ccc(O)cc1)NC(=O)[C@H](CC(=O)O)NC(=O)[C@H](CO)NC(=O)[C@@H](NC(=O)[C@H](Cc1ccccc1)NC(=O)[C@@H](NC(=O)CNC(=O)[C@H](CCC(=O)O)NC(=O)C(C)(C)NC(=O)[C@@H](N)Cc1ccc(O)cc1)[C@@H](C)O)[C@@H](C)O)[C@@H](C)CC)[C@@H](C)CC)C(C)C)C(=O)N[C@@H](C)C(=O)NCC(=O)NCC(=O)N1CCC[C@H]1C(=O)N[C@@H](CO)C(=O)N[C@@H](CO)C(=O)NCC(=O)N[C@@H](C)C(=O)N1CCC[C@H]1C(=O)N1CCC[C@H]1C(=O)N1CCC[C@H]1C(=O)N[C@@H](CO)C(N)=O` [Tzp, tirzepatide], the “GLP-1R Low Density cAMP Top” value in test [1] is on record as 99.5 (4.5) %. Also, the “GLP-1R GRK2 Recruitment Top” value in test [2] is recorded as 24.7 (2.8 ) %. Also, the “GLP-1R GTPγS Recruitment Top” value in test [3] is 43.9 (1.7) %. Also, the “GLP-1R Internalization Top” value in test [4] was 41.6 (3.0) %. The “GLP-1R β-Arr1 Recruitment Top” value in test [5] was 7.55 (0.93) %.
As a reminder, the EC50 is the midpoint of the concentration-response curve. Regarding `CC[C@H](C)[C@H](NC(=O)[C@H](CC(C)C)NC(=O)[C@H](Cc1c[nH]c2ccccc12)NC(=O)[C@H](CCC(N)=O)NC(=O)[C@@H](NC(=O)[C@H](Cc1ccccc1)NC(=O)[C@H](C)NC(=O)[C@H](CCCCN)NC(=O)[C@H](CCC(N)=O)NC(=O)[C@H](C)NC(=O)[C@@H](NC(=O)[C@H](CCCCN)NC(=O)[C@H](CC(=O)O)NC(=O)[C@H](CC(C)C)NC(=O)C(C)(C)NC(=O)[C@@H](NC(=O)[C@H](CO)NC(=O)[C@H](Cc1ccc(O)cc1)NC(=O)[C@H](CC(=O)O)NC(=O)[C@H](CO)NC(=O)[C@@H](NC(=O)[C@H](Cc1ccccc1)NC(=O)[C@@H](NC(=O)CNC(=O)[C@H](CCC(=O)O)NC(=O)C(C)(C)NC(=O)[C@@H](N)Cc1c[nH]cn1)[C@@H](C)O)[C@@H](C)O)[C@@H](C)CC)[C@@H](C)CC)C(C)C)C(=O)N[C@@H](C)C(=O)NCC(=O)NCC(=O)N1CCC[C@H]1C(=O)N[C@@H](CO)C(=O)N[C@@H](CO)C(=O)NCC(=O)N[C@@H](C)C(=O)N1CCC[C@H]1C(=O)N1CCC[C@H]1C(=O)N1CCC[C@H]1C(=O)N[C@@H](CO)C(N)=O` [Tzp ∆C20,Y1H] (H-H[Aib]EGTFTSDYSI[Aib]LDKIAQKAFVQWLIAGGPSSGAPPPS-NH2), the EC50 in test [1] (cAMP accumulation, HEK293 cells expressing GLP-1R, albumin-free, geometric mean (SEM, n)) came to 0.163 nM; in test [2] (NanoBRET, transfected freestyle HEK cells, PBS with 0.1% casein, geometric mean (SEM, n)), 3.08 nM; in test [3] (Gαs-GTPγS binding, GLP-1R-expressing membranes, albumin-free, geometric mean (SEM, n), read-out: GLP-1R GTPγS Recruitment EC50), 0.239 nM; in test [4] (diffusion-enhanced resonance energy transfer, SNAP-GLP-1R HEK293 cells, 37 °C, geometric mean (SEM, n)) it was 2.13 nM; in test [6] (cAMP accumulation, HEK293 cells expressing GIPR, albumin-free, geometric mean (SEM, n)), 0.682 nM; in test [7] (Gαs-GTPγS binding, GIPR-expressing membranes, albumin-free, geometric mean (SEM, n), read-out: GIPR GTPγS Recruitment EC50), 0.273 nM. For the same compound, the “GLP-1R Low Density cAMP Top” value in test [1] was 111 (5) %. Also, the “GLP-1R GRK2 Recruitment Top” value in test [2] was 84.2 (1.5 ) %. Further, the “GLP-1R GTPγS Recruitment Top” value in test [3] is on record as 88.9 (3.9) %. For the same compound, the “GLP-1R Internalization Top” value in test [4] is recorded as 101 (6) %. Further, in test [6] (setting [8]), the “GIPR Low Density cAMP Top” value was 80.9 (3.4) %. In addition, the “GIPR GTPγS Recruitment Top” value in test [7] (setting [8]) is 31.4 (6.6) %. Further, in test [5], the “GLP-1R β-Arr1 Recruitment Top” value is recorded as 74.6 (2.2) %.
semaglutide [reference compound]: the “efficacy at inducing internalization of the GLP-1R, in words” value in test [4] (SNAP-tagged receptor in HEK293 cells, representative of n≥3) is on record as “equally efficacious”.
